The term IC50 denotes the concentration needed to halve the response being measured.

Two molecules from ChEMBL document CHEMBL1138299, “Synthesis and antitumor activity of amine analogs of irofulven” (Bioorg Med Chem Lett, 2007) can be followed below.

This test can be described thus: Antitumor activity in MV522 cells assessed as inhibition of DNA synthesis after 2 hrs. The test is classed as functional, cell-based. Particulars: Homo sapiens, MV522, 2 h.

SMILES strings stand for the structures.

`CC1=C(C=O)C2=C(C)C3(CC3)[C@@](C)(O)C(=O)C2=C1`: the half-inhibitory concentration (IC50) came to 4900 nM.

`CC1=C(CO)C2=C(C)C3(CC3)[C@@](C)(O)C(=O)C2=C1` [IROFULVEN]: the half-maximal inhibitory concentration (IC50) is 110 nM.
